Laboratory results from publication PMC11077991, “The small molecule CBR-5884 inhibits the Candida albicans phosphatidylserine synthase” (mBio, 2024).
Converted amounts (≈) assume the structure as drawn. “And” between values parts separate entries of the source, which are not always exact repeats. Equal values may be shown once. Read-outs that look alike come from different tables or passages of the source.

Experiments:
[1] = system: wild-type C. albicans strain SC5314; assay: CLSI MIC broth microdilution; type: cell-based, Candida albicans; details: Candida albicans
Description: We then tested the effects of the six compounds on live cells by determining the minimal inhibitory concentrations (MICs) of these compounds. Following the standard Clinical & Lab Standards Institute (CLSI) MIC broth microdilution methods, wild-type C. albicans strain SC5314 was grown with avasimibe, CBR-5884, tideglusib, ebselen, ML-345, and LOC14 in RPMI MOPS medium (pH 7.0) or alternatively in minimal medium or minimal medium with HEPES (pH 7.0) at 37°C for 48 h, along with a cho1ΔΔ strain as a control (Fig. 3A through C). The concentration of the compounds was varied from 0.5 to 250 µM. […] Ebselen, LOC14, and CBR-5884, on the contrary, stopped cell growth at different concentrations in all three media, with MICs ranging between 7.8 and 31.3 μM (Fig. 3A through D). […] Specific MIC values are summarized in Fig. 3D for all the compounds.
Minimum inhibitory concentration (MIC) was determined following Clinical & Lab Standards Institute (CLSI) MIC broth microdilution protocol (Licensed to Todd Reynolds, license # Ord-1138682) ([98], [99]). Briefly, stock solutions of different compounds (purchased from MedChemExpress) were prepared at a concentration of 10 mM in DMSO and subsequently diluted as required in the same solvent. Wild-type C. albicans strain SC5314, as well as four additional wild-type strains—GDH2346, 3153A, TFPY412, and TFPY2307, were cultured overnight in YPD medium at 30°C, washed with water three times, and then diluted to a concentration of 2 × 10^3 cells/mL (OD600 = 0.00008) in one of the three media [minimal medium, minimal medium buffered with 50 mM HEPES (pH 7.0) and RPMI MOPS (pH 7.0)]. The cho1ΔΔ strain was also included as a control. A volume of 100 µL from each cell suspension was dispensed into the wells of a flat-bottom 96-well plate. An additional 100 µL of corresponding medium, containing twice the final desired concentration of each drug, was added to each well, leading to a final initial inoculum of 1 × 10^3 cells/mL (OD600 = 0.00004). The final DMSO concentration was maintained at 2.5% across all treatments. Following preparation, the plates were incubated at 37°C for 48 h and photos were taken with a Bio-Rad Gel Doc XR + Imaging System.

[2] = molecular target: purified C. albicans Cho1 (phosphatidylserine synthase) (Candida albicans, UniProt A0A1D8PF32); assay: malachite-green-based nucleotidase-coupled assay, dose-response; type: biochemical; details: top 200 µM, 3 h at 30°C, three replicates
Description: A malachite-green-based nucleotidase-coupled assay was used to measure the PS synthesis activity of Cho1 (Fig. 1B). Cho1 catalyzes the production of PS and cytidylmonophosphate (CMP) from CDP-DAG and serine, where CMP can then be recognized and cleaved by the nucleotidase CD73 to release inorganic phosphate, which is subsequently detected by malachite green. To test whether this malachite-green-based assay can reflect Cho1 activity, a time-course test was performed with a fixed amount of purified Cho1 in the presence of substrates (Fig. 1C).
The bioactives library was purchased from Selleck in 2014, and the remaining libraries (anti-infectives and mechanism of action libraries) were assembled from compounds available at the Chemical Biology and Therapeutics Department at St. Jude Children’s Research Hospital. The anti-infectives library contains a curated list of antimicrobials and antiviral agents ([95]). The bioactive library has a compilation of compounds acquired from commercial sources and external academic collaborators. The mechanism of action set is a dynamic set of well-annotated compounds with comprehensive coverage of human targets and mechanisms of action ([96]). All compounds were dissolved in DMSO and 100 nL was transferred to a 384-well clear bottom plate (ThermoFisher Scientific, cat# 265203) using a Beckman Echo 650 acoustic liquid handler. Equal volumes of either the selective CD73 nucleotidase inhibitor AB680 at a final concentration of 1 µM (MedChemExpress, cat# HY-125286) or DMSO were used as positive and negative controls, respectively. A total of 30–35 ng of purified Cho1 protein was used in each reaction in 50 mM Tris-HCl (pH 8.0) for primary screening, combined with 100 µM CDP-DAG (Avanti, cat# 870510), 5 mM serine, 0.4 ng CD73 nucleotidase (R&D systems, cat# EA002), 1 mM MnCl2, 0.1% APX-100, and 0.1% digitonin, in a total volume of 10 µL. Counter screen reactions were set up by replacing only the purified Cho1 with 150 µM CMP, with all other components remaining constant. The 10 µL primary and counter screening reactions were delivered to each well of 384-well assay plates containing pre-aliquoted compounds from the library using a Multidrop Combi (ThermoFisher Scientific). […] After media transfer, assay plates were incubated for 3 h at 30°C. Plates were then removed and 32 µL of malachite green mixture [6 µL malachite A (2%, wt/vol, ammonium molybdate and 20%, vol/vol, sulfuric acid in H2O) +20 µL H2O + 6 µL malachite B (0.1%, wt/vol, malachite green oxalate and 0.5%, wt/vol, polyvinyl alcohol in H2O)] were added to each well via a MultiDrop Combi and incubated for an additional 10 min at room temperature. After incubation, plates were briefly centrifuged at 500 × g and absorbance at 620 nm was then measured using a Cytation7 plate reader (Biotek, Winooski, VT). Raw absorbance values of the compounds were normalized to DMSO (0% inhibition) and AB680 (100% inhibition) from both primary and counter screens, and % Δinhibition was calculated by […]. Z-factors for each plate were calculated using the in-house program RISE (Robust Investigation of Screening Experiments). All non-PAINs compounds that had >80% Δinhibition progressed to dose-response testing (82 total compounds). Dose-response experiments were performed in triplicate as described above using a 10-point, threefold serial dilution with the top concentration for each compound tested being 200 µM (range: 0.010161–200 μM). The absorbance at 620 nm was then measured using a PHERAstar FS multilabel reader (BMG, Cary, NC). Raw values were once again normalized to DMSO (0% inhibition) and AB680 (100% inhibition) and Z-factors for each plate were calculated using RISE. […]

[3] = SC5314, 48 h, pH 7, read-out: Minimal Inhibitory Concentration (MIC): MM, HEPES 7.0
[4] = SC5314, 48 h, pH 7, read-out: Minimal Inhibitory Concentration (MIC): RPMI, MOPS 7.0
[5] = SC5314, 48 h, read-out: MICs across all three media
[6] = SC5314, 48 h, read-out: Minimal Inhibitory Concentration (MIC): MM
[7] = Best-fit IC50, inhibition of Cho1, 10-point dose-response

Chain of purified C. albicans Cho1 (phosphatidylserine synthase) (A0A1D8PF32 entry or part of it): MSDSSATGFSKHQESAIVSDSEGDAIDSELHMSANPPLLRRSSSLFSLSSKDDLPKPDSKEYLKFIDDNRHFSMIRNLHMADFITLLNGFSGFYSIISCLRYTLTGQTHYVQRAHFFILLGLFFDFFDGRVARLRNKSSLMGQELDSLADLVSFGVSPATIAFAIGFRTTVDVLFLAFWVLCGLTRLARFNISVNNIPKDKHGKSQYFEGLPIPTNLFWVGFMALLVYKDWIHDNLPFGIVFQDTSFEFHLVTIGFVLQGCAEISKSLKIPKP

SMILES | MIC [1, 3] | MIC [1, 4] | MIC [1, 5] | MIC [1, 6] | IC50 [2, 7] | MIC ([1]; SC5314, RPMI MOPS pH 7.0, 37°C, 48 h, read-out: Minimal Inhibitory Concentration (MIC): RPMI, MOPS 7.0) | MIC ([1]; SC5314, minimal medium with 50 mM HEPES pH 7.0, 37°C, 48 h, read-out: Minimal Inhibitory Concentration (MIC): MM, HEPES 7.0) | MIC ([1]; SC5314, minimal medium, 37°C, 48 h, read-out: Minimal Inhibitory Concentration (MIC): MM) | MIC ([1]; SC5314, minimal medium, minimal medium HEPES, RPMI MOPS, 37°C, 48 h, read-out: MICs across all three media) | IC50 ([2]; 10-point dose-response, read-out: Best-fit IC50, inhibition of Cho1)
CCOC(=O)c1sc(NC(=O)c2ccco2)c(SC#N)c1C [CBR-5884] | 31.3 µM (≈ 10.5 µg/mL) | 31.3 µM (≈ 10.5 µg/mL) | 7.8 to 31.3 µM (≈ 2.62 to 10.5 µg/mL) | 7.8 µM (≈ 2.62 µg/mL) | ≤ 20 µM and ~8.44 µM |  |  |  |  | 
O=c1c2ccccc2[se]n1-c1ccccc1 [Ebselen] |  |  |  |  | ≤ 20 µM and ~11.1 µM and 11.1 µM | 7.8 µM (≈ 2.14 µg/mL) | 15.6 µM (≈ 4.28 µg/mL) | 7.8 µM (≈ 2.14 µg/mL) | 7.8 to 31.3 µM (≈ 2.14 to 8.58 µg/mL) | 
O=C(C1CC1)N1CCN(Cn2sc3ccccc3c2=O)CC1 [LOC14] | 15.6 µM (≈ 4.95 µg/mL) | 31.3 µM (≈ 9.94 µg/mL) | 7.8 to 31.3 µM (≈ 2.48 to 9.94 µg/mL) | 15.6 µM (≈ 4.95 µg/mL) |  |  |  |  |  | ~75.5 µM
